# Measured values taken from patent US8158621B2, “Methods of treating or preventing autoimmune diseases with 2,4-pyrimidinediamine compounds” (Rigel Pharmaceuticals, Inc., priority 2002, dated 2012).
# Assays:
# [1] = system: Human Jurkat T-cells (clone N); experiment: Jurkat T-cell activation (anti-TCR, CD69 upregulation); format: cell-based
# Outline: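 Jurkat cells in RPMI + 5% FBS preincubated with compound 1 h at 37 °C, then stimulated with anti-TCR C305 at 500 ng/ml for 20 h. CD69 surface expression stained with anti-CD69-APC and read by flow cytometry; IC50 versus solvent-only control.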
# [2] = system: cultured human mast cells (CHMC); experiment: CHMC high cell density IgE activation: hexos; format: cell-based
# [3] = system: cultured human mast cells (CHMC); experiment: CHMC high cell density IgE activation: LTC4; format: cell-based
# Outline: (§1)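 IgE-sensitized CHMC at 1-2 ×10^6 cells/ml were preincubated with compound (0.5% DMSO) for 1 h at 37 °C, then stimulated with anti-IgE for 1 h before supernatant collection. Pellets were reincubated with compound for 7 h at 37 °C, and mediators were measured by ELISA on diluted supernatants.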
# Jurkat cells = experiment: Jurkat toxicity, Cell Titer Glo assay; format: cell-based, human
# Experimental: Seed 50 μl cells (1×10^6/ml) into each well containing 50 μl compound. […] Shake plates for 1 minute to mix cells and compound. Incubate plates at 37° C. […] Next day, harvest 50 μl cells from each well, add to 50 μl Cell Titer Glo reagent ([…]). Shake plates for 1 minute. Read on luminometer.
# [4] = system: cultured human mast cells (CHMC); experiment: CHMC high cell density IgE activation: tryptase; format: cell-based
# [5] = system: cultured human mast cells (CHMC); experiment: CHMC low cell density IgE activation: tryptase assay; format: cell-based; conditions: Low Density; read-out: CHMC anti-IgE Tryptase
# Outline: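 Cultured human mast cells (1000-1500 cells/well, donor-dependent) equilibrated 1 hr at 37° C, then stimulated with anti-IgE for 30 min at 37° C. Tryptase released into the supernatant is measured with a fluorogenic tryptase substrate after 30 min at room temperature.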
# [6] = system: cultured human mast cells (CHMC); experiment: CHMC low cell density ionomycin activation: tryptase assay; format: cell-based; conditions: Low Density; read-out: CHMC Ionomycin Tryptase
# [7] = system: cultured human mast cells (CHMC); experiment: CHMC high cell density IgE activation: TNFalpha; format: cell-based; conditions: read-out: CHMC high density TNF-alpha
# Outline: as §1
# B-cell line BJAB = experiment: BJAB toxicity, Cell Titer Glo assay; format: cell-based
# Experimental: Seed 50 μl cells (1×10^6/ml) into each well containing 50 μl compound. The final vehicle concentration is 0.5% DMSO, 1.5% MeOH. Shake plates for 1 minute to mix cells and compound. Incubate plates at 37° C. (5% CO2) for 18 hours. Next day, harvest 50 μl cells from each well, add to 50 μl Cell Titer Glo reagent ([…]). Shake plates for 1 minute. Read on luminometer.
# [8] = system: bone marrow derived mast cells (BMMC); experiment: BMMC high cell density IgE activation: TNFalpha; format: cell-based, mouse; conditions: High Density section of TABLE 1, BMMC, anti-IgE activation, TNFalpha; read-out: BMMC anti-IgE TNF-alpha IC50
# Outline: (§2)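 Mediator release from sensitized BMMC: after 1 h compound exposure at 37 °C (0.5% DMSO), cells challenged with DNP-BSA for 1 h and early supernatant collected. Cells then recultured 4-5 h in conditioned medium with compound; cytokines IL-6 and TNFα quantified by ELISA.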
# [9] = system: bone marrow derived mast cells (BMMC); experiment: BMMC high cell density IgE activation: LTC4; format: cell-based, mouse; conditions: High Density section of TABLE 1, BMMC, anti-IgE activation, LTC4; read-out: BMMC anti-IgE LTC4 IC50
# Experimental: (§3) After sensitizing, cells are counted, pelleted (1000 rpm, 5-10 minutes), and resuspended at 1-3×10^6 cells/ml in MT buffer. Add 100 ul of cell suspension to each well and 100 ul of compound dilutions. The final vehicle concentration is 0.5% DMSO. Incubate at 37° C. (5% CO2) for 1 hour. After 1 hour of compound treatment, stimulate cells with 6× stimulus (60 ng/ml DNP-BSA). Mix wells with the cells and allow plates to incubate at 37° C. (5% CO2) for one hour. After 1 hour incubation, pellet cells (10 minutes, 1000 RPM) and collect 200 ul per well of the supernatant, being careful not to disturb pellet, and transfer to a clean tube or 96-well plate. Place the supernatant plate on ice. During the 4-5 hour step (see next) perform the hexosiminidase assay. Resuspend cell pellet in 240 ul WEI-conditioned media containing 0.5% DMSO and corresponding concentration of compound. Incubate BMMC cells for 4-5 hours at 37° C. (5% CO2). After incubation, pellet cells (1000 RPM, 10 minutes) and collect 225 ul per well and place in −80° C. until ready to perform ELISAS. ELISAS are performed on appropriately diluted samples (determined empirically for each donor cell population so that the sample measurement falls within the standard curve) following the supplier's instructions.
# [10] = system: bone marrow derived mast cells (BMMC); experiment: BMMC high cell density IgE activation: IL-6; format: cell-based, mouse; conditions: High Density section of TABLE 1, BMMC, anti-IgE activation, IL-6; read-out: BMMC anti-IgE IL-6 IC50
# Outline: as §2
# [11] = system: bone marrow derived mast cells (BMMC); experiment: BMMC high cell density IgE activation: histamine; format: cell-based, mouse; conditions: High Density section of TABLE 1, BMMC, anti-IgE activation, histamine; read-out: BMMC anti-IgE histamine IC50
# Experimental: as §3
# [12] = system: bone marrow derived mast cells (BMMC); experiment: BMMC high cell density IgE activation: hexosaminidase; format: cell-based, mouse; conditions: High Density section of TABLE 1, BMMC, anti-IgE activation, hexosaminidase; read-out: BMMC anti-IgE hexos. IC50
SMILES,IC50 [1] [nM],IC50 [2] [nM],IC50 [3] [nM],IC50 (Jurkat cells) [nM],IC50 [4] [nM],IC50 [5] [nM],IC50 [6] [nM],IC50 [7] [nM],IC50 (B-cell line BJAB) [nM],IC50 [8] [nM],IC50 [9] [nM],IC50 [10] [nM],IC50 [11] [nM],IC50 [12] [nM]
OCCOc1cccc(Nc2ncc(F)c(Nc3cccc(OCCO)c3)n2)c1 [Compound R935075],5370,647,< 220,> 4330,1210,930,> 10000,> 2000,> 4330,–,–,–,–,–
OCCOc1cccc(Nc2ncc(F)c(Nc3ccc4c(c3)OCCO4)n2)c1 [Compound R935154],1650,–,–,> 4330,–,127,> 10000,–,–,131,547,41,85,104
CC(C)Oc1ccc(Nc2nc(Nc3cccc(OCCO)c3)ncc2F)cc1 [Compound R935156],1840,–,–,4050,–,149,> 10000,–,–,220,433,< 220,< 220,< 220
Nc1cccc(Nc2ncc(F)c(Nc3ccc4c(c3)OCCO4)n2)c1 [Compound R950207],1080,–,–,> 4330,–,164,> 10000,–,–,< 220,288,< 220,< 220,< 220
